According to patent US9931347B2, “Pharmaceutical compound” (IOmet Pharma Ltd., priority 2013, dated 2018):

How the values were obtained:
[1] = molecular target: T1, TDO (A172 human glioblastoma cells) (Homo sapiens, UniProt P48775); assay: A172 Kynurenine cell based assay; conditions: 500 μM L-tryptophan, 48 hours, kynurenine by Erhlich's reagent
T1 construct: This assay utilised cancer cells which expressed either TDO or IDO; endogenous in cells; host or cells: A172 human glioblastoma cells
In short: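 Kynurenine released into the supernatant was quantified by absorbance at 490 nm after 5 min with Erhlich's reagent. A172 cells were seeded at 30,000/well and exposed to test compound for 48 hours at 37° C. in phenol red-free RPMI containing 500 μM L-tryptophan, 10% FCS and 2 mM L-glutamine.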

[2] = molecular target: T2, IDO (SKOV3 human ovarian adenocarcinoma cells, IFN-γ induced) (Homo sapiens, UniProt P14902); assay: SKOV3 Kynurenine cell based assay; conditions: IDO induced by 500 ng/ml IFN-γ, 500 μM L-tryptophan, 48 hours
T2 construct: IDO expression was induced in the SKOV3 cells by the addition of 500 ng/ml IFN-γ; endogenous in cells; host or cells: SKOV3 human ovarian adenocarcinoma cells, induced with IFN-γ
T2 sequence (P14902 whole entry): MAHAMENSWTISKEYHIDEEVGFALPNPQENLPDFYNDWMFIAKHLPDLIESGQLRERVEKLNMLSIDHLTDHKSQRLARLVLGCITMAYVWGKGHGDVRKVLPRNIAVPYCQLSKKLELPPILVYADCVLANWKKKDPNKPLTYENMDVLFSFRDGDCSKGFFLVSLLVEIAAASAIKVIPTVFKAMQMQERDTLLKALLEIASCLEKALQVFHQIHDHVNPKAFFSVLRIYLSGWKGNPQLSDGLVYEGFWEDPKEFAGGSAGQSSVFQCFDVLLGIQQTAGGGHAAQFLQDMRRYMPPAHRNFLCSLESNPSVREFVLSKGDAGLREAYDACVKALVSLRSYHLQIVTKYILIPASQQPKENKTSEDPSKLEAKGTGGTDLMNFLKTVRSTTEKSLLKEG
In short: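 Kynurenine in the supernatant, detected by Ehrlich's reagent, served as read-out after 48 h at 37° C with or without test compound. SKOV3 cells (40,000/well) were grown in phenol red-free RPMI, 10% FCS, 2 mM L-glutamine, 500 μM L-tryptophan, with 500 ng/ml IFN-γ to induce IDO.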

Recombinant human IDO = Recombinant human IDO (Homo sapiens, UniProt P14902); assay: hIDO biochemical coupled assay; conditions: 45 μM L-tryptophan, coupled with kynurenine formamidase
Sequence of Recombinant human IDO (P14902 whole entry): as above
Experimental: (§1) Exemplary compounds of the invention were prepared, and tested to determine their effect as TDO and/or IDO inhibitors. Two different assays were employed: 1. a cell-based assay for detecting the effect of test compounds on kynurenine production in two different cancer cell types. This assay utilised cancer cells which expressed either TDO or IDO and as such was used as a means of testing compound activity at these two enzymes in a cell-based context. 2. a TDO and IDO biochemical coupled assay which utilised recombinantly produced and purified TDO and IDO enzymes in combination with the enzyme formamidase. This coupled enzyme system allowed conversion of N-formylkynurenine produced by TDO or IDO activity to kynurenine which was then quantified by fluorescence following addition of Erhlich's Reagent The protocols for these are set out below.
Recombinant human IDO or TDO was incubated in 50 mM KPO4 (pH 7.0), 0.5 mM EGTA, 0.5 mM EDTA, 0.05% Triton™ X100, 20 mM ascorbate, 10 μM methylene blue, 500 U/ml catalase, 50 μg/ml KynB (kynurenine formamidase).

Recombinant human TDO = Recombinant human TDO (Homo sapiens, UniProt P48775); assay: hTDO biochemical coupled assay; conditions: 330 μM L-tryptophan, coupled with kynurenine formamidase
Sequence of Recombinant human TDO (P48775 whole entry): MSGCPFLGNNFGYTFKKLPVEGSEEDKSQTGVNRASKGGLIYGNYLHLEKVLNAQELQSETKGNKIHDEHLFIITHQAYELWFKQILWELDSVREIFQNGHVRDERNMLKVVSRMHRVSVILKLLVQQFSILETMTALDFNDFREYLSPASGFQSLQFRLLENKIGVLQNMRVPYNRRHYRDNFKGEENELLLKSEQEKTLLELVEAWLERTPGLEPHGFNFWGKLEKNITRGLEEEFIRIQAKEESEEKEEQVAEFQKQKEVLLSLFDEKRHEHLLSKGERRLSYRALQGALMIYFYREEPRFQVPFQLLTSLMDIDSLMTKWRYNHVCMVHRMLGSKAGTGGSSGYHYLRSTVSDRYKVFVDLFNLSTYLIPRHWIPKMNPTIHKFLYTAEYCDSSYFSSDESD
Experimental: as §1
Recombinant human IDO or TDO was incubated in 50 mM KPO4 (pH 7.0), 0.5 mM EGTA, 0.5 mM EDTA, 0.05% Triton™ X100, 20 mM ascorbate, 10 μM methylene blue, 500 U/ml catalase, 50 μg/ml KynB (kynurenine formamidase). TDO assays were carried out in the presence of 330 μM L-tryptophan, while IDO assays had the addition of 45 μM L-tryptophan. After incubation for 17 minutes at room temperature the reactions were stopped by the addition of Erhlich's reagent and incubated at room temperature for 5 minutes before the fluorescence was read (Ex475, Em530).

T1 sequence (P48775 whole entry): as above

| SMILES | A172 Kynurenine cell based assay pIC50 [1] | SKOV3 Kynurenine cell based assay pIC50 [2] | hIDO biocehmical assay pIC50 (Recombinant human IDO) | hTDO biochemical assay pIC50 (Recombinant human TDO) |
| --- | --- | --- | --- | --- |
| CC(=O)N1CC=C(c2c[nH]c3ccc(C)cc23)CC1 [Compound 89] | + (+ = pIC50 4.00-4.99) | + (+ = pIC50 4.00-4.99) | +− (+− = pIC50 <4.00) | ++ (++ = pIC50 5.00-5.99) |
| O=C(c1cccs1)N1CCC(c2c[nH]c3ccccc23)CC1 [Compound 11] | + (+ = pIC50 4.00-4.99) | + (+ = pIC50 4.00-4.99) | +− (+− = pIC50 <4.00) | +− (+− = pIC50 <4.00) |
| O=C(C1CC1)N1CCC(c2c[nH]c3ccccc23)CC1 [Compound 71] | + (+ = pIC50 4.00-4.99) | +− (+− = pIC50 <4.00) | +− (+− = pIC50 <4.00) | +− (+− = pIC50 <4.00) |
| NS(=O)(=O)N1CC=C(c2c[nH]c3cc(F)ccc23)CC1 [Compound 164] | +++ (+++ = pIC50 ≥6.00) | +− (+− = pIC50 <4.00) | +− (+− = pIC50 <4.00) | +++ (+++ = pIC50 ≥6.00) |
| CS(=O)(=O)N1CC=C(c2c[nH]c3cccc(F)c23)CC1 [Compound 78] | + (+ = pIC50 4.00-4.99) | +− (+− = pIC50 <4.00) | +− (+− = pIC50 <4.00) | + (+ = pIC50 4.00-4.99) |
| O=S(=O)(c1ccccc1Br)N1CCC(c2c[nH]c3ccccc23)CC1 [Compound 21] | + (+ = pIC50 4.00-4.99) | + (+ = pIC50 4.00-4.99) | +− (+− = pIC50 <4.00) | +− (+− = pIC50 <4.00) |
| Cc1[nH]c2ccccc2c1C1CCN(C(=O)C2CCCO2)CC1 (centres unmarked) [Compound 17] | +− (+− = pIC50 <4.00) | + (+ = pIC50 4.00-4.99) | +− (+− = pIC50 <4.00) | +− (+− = pIC50 <4.00) |
| Cc1cccc2c(C3CCN(C(=O)c4ccc(F)c(C(F)(F)F)c4)CC3)c[nH]c12 [Compound 54] | + (+ = pIC50 4.00-4.99) | + (+ = pIC50 4.00-4.99) | +− (+− = pIC50 <4.00) | +− (+− = pIC50 <4.00) |
| COc1ccc2[nH]cc(C3=CCN(C(C)=O)CC3)c2c1 [Compound 70] | +− (+− = pIC50 <4.00) | +− (+− = pIC50 <4.00) | +− (+− = pIC50 <4.00) | + (+ = pIC50 4.00-4.99) |
| COCC(=O)N1CCC(c2c[nH]c3ccccc23)CC1 [Compound 84] | + (+ = pIC50 4.00-4.99) | +− (+− = pIC50 <4.00) | +− (+− = pIC50 <4.00) | +− (+− = pIC50 <4.00) |
| COC(=O)c1ccccc1S(=O)(=O)N1CCC(c2c[nH]c3ccc(C#N)cc23)CC1 [Compound 56] | +− (+− = pIC50 <4.00) | ++ (++ = pIC50 5.00-5.99) | +− (+− = pIC50 <4.00) | +− (+− = pIC50 <4.00) |
| CCCC(=O)N1CCC(c2c[nH]c3ccccc23)CC1 [Compound 83] | + (+ = pIC50 4.00-4.99) | +− (+− = pIC50 <4.00) | +− (+− = pIC50 <4.00) | +− (+− = pIC50 <4.00) |
| CC(=O)N1CCC(C2CNc3cc(F)ccc32)CC1 (centres unmarked) [Compound 179] | + (+ = pIC50 4.00-4.99) | +− (+− = pIC50 <4.00) | +− (+− = pIC50 <4.00) | +− (+− = pIC50 <4.00) |
| COc1ccc2[nH]cc(C3CCN(C(=O)C(C)C)CC3)c2c1 [Compound 15] | +− (+− = pIC50 <4.00) | + (+ = pIC50 4.00-4.99) | +− (+− = pIC50 <4.00) | +− (+− = pIC50 <4.00) |
| Cc1cc(C(=O)N2CCC(c3c(C)[nH]c4ccccc34)CC2)no1 [Compound 8] | +− (+− = pIC50 <4.00) | + (+ = pIC50 4.00-4.99) | +− (+− = pIC50 <4.00) | +− (+− = pIC50 <4.00) |
| CS(=O)(=O)N1CCC(c2c[nH]c3cnccc23)CC1 [Compound 176] | + (+ = pIC50 4.00-4.99) | + (+ = pIC50 4.00-4.99) | +− (+− = pIC50 <4.00) | +− (+− = pIC50 <4.00) |
| FC(F)(F)CN1CCC(c2c[nH]c3ccccc23)CC1 [Compound 10] | + (+ = pIC50 4.00-4.99) | +− (+− = pIC50 <4.00) | +− (+− = pIC50 <4.00) | +− (+− = pIC50 <4.00) |
| Cc1ccc2[nH]cc(C3CCN(S(=O)(=O)c4ccccc4OC(F)(F)F)CC3)c2c1 [Compound 36] | + (+ = pIC50 4.00-4.99) | ++ (++ = pIC50 5.00-5.99) | +− (+− = pIC50 <4.00) | +− (+− = pIC50 <4.00) |
| CS(=O)(=O)N1CCC(c2c[nH]c3ccncc23)CC1 [Compound 175] | + (+ = pIC50 4.00-4.99) | + (+ = pIC50 4.00-4.99) | +− (+− = pIC50 <4.00) | +− (+− = pIC50 <4.00) |
| O=S(=O)(c1cc(C(F)(F)F)ccc1C(F)(F)F)N1CCC(c2c[nH]c3ccc(F)cc23)CC1 [Compound 26] | +− (+− = pIC50 <4.00) | + (+ = pIC50 4.00-4.99) | +− (+− = pIC50 <4.00) | +− (+− = pIC50 <4.00) |
| CC(=O)N1CC=C(c2c[nH]c3cc(F)c(F)cc23)CC1 [Compound 167] | ++ (++ = pIC50 5.00-5.99) | + (+ = pIC50 4.00-4.99) | +− (+− = pIC50 <4.00) | ++ (++ = pIC50 5.00-5.99) |
| CS(=O)(=O)N1CCC(C2C(=O)Nc3cc(F)ccc32)CC1 (centres unmarked) [Compound 178] | +− (+− = pIC50 <4.00) | ++ (++ = pIC50 5.00-5.99) | +− (+− = pIC50 <4.00) | +− (+− = pIC50 <4.00) |
| NC(=O)N1CCC(c2c[nH]c3ccccc23)CC1 [Compound 16] | + (+ = pIC50 4.00-4.99) | +− (+− = pIC50 <4.00) | +− (+− = pIC50 <4.00) | +− (+− = pIC50 <4.00) |
| CCn1ncc(S(=O)(=O)N2CCC3(CC2)C(=O)Nc2ccccc23)c1C [Compound 173] | + (+ = pIC50 4.00-4.99) | + (+ = pIC50 4.00-4.99) | +− (+− = pIC50 <4.00) | +− (+− = pIC50 <4.00) |
| COc1ccc2[nH]cc(C3CCN(S(=O)(=O)c4ccc(Br)cc4OC(F)(F)F)CC3)c2c1 [Compound 30] | +− (+− = pIC50 <4.00) | + (+ = pIC50 4.00-4.99) | +− (+− = pIC50 <4.00) | +− (+− = pIC50 <4.00) |
| COc1ccc(Br)cc1S(=O)(=O)N1CCC(c2c[nH]c3ccc(F)cc23)CC1 [Compound 27] | + (+ = pIC50 4.00-4.99) | + (+ = pIC50 4.00-4.99) | +− (+− = pIC50 <4.00) | +− (+− = pIC50 <4.00) |
